Common to all, as to experiment: NCI anticancer screen, dose series, 48 h
The subject of test [1] is DU-145 prostate.
The subject of test [2] is MDA-MB-435.
The test system of test [3] is SR leukemia.
The subject of test [4] is LOX IMVI melanoma.
For test [5], the system named is RXF 393 renal.
Test [6] deals with HS 578T breast.
For test [7], the system named is UACC-62 melanoma.
Test [8] deals with UACC-257 melanoma.
The subject of test [9] is HOP-92 NSCLC.
Test [10] relates to HCT-15 colon.
The test system of test [11] is NCI-H522 lung.
The test system of test [12] is MALME-3M melanoma.

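Following 48 hours of exposure in 96-well plates, responses at five concentrations were used to interpolate endpoints linearly. TGI: concentration producing complete growth inhibition.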 Bounds are passed on as bounds.

On to `NC(=O)C(=CNC(=S)Nc1cccc(C(F)(F)F)c1)C(N)=O`, for which the TGI in test [1], in [2], in test [3], in test [4], in test [5] and in [6] was greater than 100 µM throughout. For the same molecule, the TGI in test [7], in test [8] and in [9] was greater than 100 µM in each case.
Take `CN(CCCn1ccnc1[N+](=O)[O-])CCCn1ccnc1[N+](=O)[O-]`: the TGI in [1], in test [2], in [10], in test [3], in [4] and in test [5] was greater than 100 µM throughout. In addition, the TGI in test [6], in [11], in test [7], in [8] and in test [12] was greater than 100 µM throughout.
With `CSc1c(C#N)c(S)[nH]c(=O)c1C#N`, the TGI in test [1], in test [2], in test [10], in [3], in test [4] and in test [5] was greater than 100 µM each time. For the same molecule, the TGI in [6] is greater than 100 µM; in test [11], greater than 100 µM; in test [7], greater than 100 µM; in [8] it was greater than 100 µM; in test [12], 51.5 µM.
In the case of `O=Nc1c(O)cc(Nc2cccnc2)c2ccccc12`, the TGI is greater than 100 µM in test [1]; greater than 100 µM in [2]; 64.1 µM in [10]; greater than 100 µM in test [4]; greater than 100 µM in test [5]; greater than 100 µM in test [6]. Besides, the TGI in [11] was 28 µM; in test [7], 55.6 µM; in [8] it was greater than 100 µM; in test [9], 68 µM.
In the case of `COc1ccc(C(=O)/C=C/c2ccc(OCC(=N)N)cc2)cc1`, the TGI is 25.4 µM in test [1]; 36.8 µM in test [2]; 31.7 µM in [10]; 25.9 µM in test [3]; 28.3 µM in test [5]; 34.9 µM in test [6]. The TGI turned out to be 29 µM in test [7], 38.1 µM in [8], 28.5 µM in [9] and 32 µM in [12].
On to `CCCCOC(=O)c1cc(C(=CCC[C@H]2CC[C@@]3(C)[C@@H](CC[C@@H]4[C@@H]3CC[C@]3(C)[C@@H](C(C)CCCC(C)C)CC[C@@H]43)C2)c2cc(Cl)c(O)c(C(=O)OCCCC)c2)cc(Cl)c1O` (some centres not stated), for which the TGI in test [1], in test [2], in test [10], in test [4], in [6] and in test [7] was greater than 50 µM in each case. This molecule returned a TGI in test [9] greater than 50 µM.
Regarding `CN(C)c1ccc(/C=C/c2cc(-c3ccccc3)[n+](C)n2-c2ccccc2)cc1`, the TGI in test [1] is 22.7 µM; in test [2], 2.98 µM; in test [10], 14.5 µM; in test [3], greater than 30 µM; in test [4], 14.2 µM; in test [5], 4.18 µM. The TGI is 0.248 µM in test [6]; 0.318 µM in test [11]; greater than 39.7 µM in [7]; 26.8 µM in test [8]; 16.6 µM in [9].
Consider `CCCNC(=O)N1CC(CN2CCN(c3ccccc3)CC2)O/C1=N/C(=O)Nc1ccccc1` (configuration not stated), for which the TGI in test [1], in [2], in test [4], in test [5], in test [6] and in test [11] was greater than 100 µM in each case. The TGI in test [7], in test [8], in [9] and in test [12] was greater than 100 µM each time.
For the molecule `Cc1csc(NNC(=O)Nc2ccccc2)n1`, the TGI in [1], in test [2], in test [10], in test [3], in test [4] and in [5] was greater than 100 µM throughout. In addition, the TGI in test [6], in [11], in test [7], in test [8] and in [12] was greater than 100 µM in each case.
As to `CCO/C(Cc1ccc(Cl)cc1)=N/NC(N)=S`, the TGI in test [1], in test [2], in test [10], in [3], in test [4] and in test [6] was greater than 100 µM in each case. The TGI in test [7], in test [8], in test [9] and in [12] was greater than 100 µM throughout.
As for `CCOC(=O)C(OP(=O)(OCC)OCC)C(F)(F)F` (configuration not stated), the TGI in test [1], in [2], in test [10], in test [3], in [4] and in test [5] was greater than 100 µM throughout. Also, the TGI in test [6], in test [11], in [7], in test [8] and in test [12] was greater than 100 µM throughout.
Take `CCOC(=O)c1cc(C2CCN(Cc3ccccc3)C2=S)c(C(=O)C=[N+]=[N-])[nH]1` (configuration not stated): the TGI was greater than 100 µM in test [1]; greater than 100 µM in [2]; 53.8 µM in test [10]; 75.5 µM in test [5]; greater than 100 µM in test [6]; 46.7 µM in test [11]. The TGI is 50.7 µM in test [7], 71.4 µM in test [8], greater than 100 µM in test [9] and 66.3 µM in test [12].
In the case of `O=C1NC(=S)NC(=O)C1=C/C=C/c1ccc([N+](=O)[O-])cc1`, the TGI is 32.7 µM in test [1]; 28.3 µM in test [2]; 31.7 µM in [10]; 22.6 µM in test [4]; 26.8 µM in test [5]; 44.6 µM in test [6]. Further, the TGI in [7] is 28.7 µM; in [8] it was 30.8 µM; in [9] it was 29.5 µM; in test [12] it was 80.8 µM.
On to `CCCCCCCCC/C=C1/CC(CO)(COC(=O)c2ccccc2)OC1=O` (configuration not stated), for which the TGI in [1] was determined as 25.5 µM; in test [2], 23.3 µM; in test [10] it was 29.8 µM; in [3], 54 µM; in [5], 31 µM; in test [6], 13 µM. In addition, the TGI in [11] was found to be 26.6 µM; in test [7] it was 28.1 µM; in test [8], 27.4 µM; in test [9] it was 14.4 µM; in test [12], 20.8 µM.
In the case of `COC1=CC(=O)C2=C(C[C@@]3(C)C(=C2)C(CO)=CC[C@H]3O)C1=O`, the TGI in [1] is greater than 100 µM; in [2] it was 41.2 µM; in test [10], 88.5 µM; in test [4], 38.9 µM; in [5], 30.9 µM; in test [6] it was greater than 100 µM. In addition, the TGI in test [7] was 32.4 µM; in test [8] it was 36.9 µM; in [9], 24.5 µM; in test [12] it was greater than 100 µM.
For `COC1/C=C/C(C)C(C(C)C(OC)C(C)CCC(=O)C(C)C(CC(=O)O)OC)OC(=O)/C=C/C=C(\C)CC(OC)CC2=CC(=O)O[C@H](C2)C(C)C(OC)CC(OC)/C=C/C(C)C(OC)C1` (some centres not stated), the TGI in test [1] was greater than 4.35 µM; in test [2], greater than 4.35 µM; in test [10], greater than 4.35 µM; in test [3], greater than 4.35 µM; in test [6] it was 0.387 µM; in test [11], 1.82 µM. The TGI in [7] was 3.05 µM; in test [8] it was greater than 4.35 µM; in [9], 1.32 µM.
Consider `N#Cc1ccc(C2NN=CC23C(=O)c2ccccc2OC3c2ccccc2)cc1` (configuration not stated), for which the TGI in [1], in test [2], in test [10], in test [3], in test [4] and in test [5] was greater than 100 µM in each case. Also, the TGI in test [6] is greater than 100 µM; in [11], 54.4 µM; in test [7], greater than 100 µM; in test [8], greater than 100 µM; in test [12], greater than 100 µM.
Turning to `COc1ccc(/C(=N\Nc2ccccn2)c2ccccn2)cc1`, the TGI in [1] is greater than 100 µM; in [2], 22.3 µM; in test [10], 12.5 µM; in test [3] it was greater than 33.7 µM; in test [5], 36.6 µM; in test [6], 18.4 µM. The TGI in test [11] was 14.8 µM; in [7], 6.44 µM; in [8] it was 17.4 µM; in test [9], greater than 24.3 µM.
Regarding `O=C1c2ccccc2C(=O)N1CC(CN1C(=O)c2ccccc2C1=O)(C(=O)OCc1ccccc1)C(=O)OCc1ccccc1`, the TGI in test [1], in [2], in test [10], in test [3], in test [5] and in [6] was greater than 100 µM in each case. Further, the TGI in test [11], in test [7], in [9] and in [12] was greater than 100 µM in each case.
As for `O=[N+]([O-])C(=C/c1cccs1)/C(=C\c1cccs1)[N+](=O)[O-]`, the TGI came out at 3.53 µM in test [1]; 2.23 µM in [2]; 0.614 µM in test [10]; 0.987 µM in test [3]; 0.688 µM in [4]; 0.486 µM in test [5]. Also, the TGI came out at 50.7 µM in test [6]; 2.53 µM in test [7]; 3.46 µM in test [8]; 3.28 µM in [9]; 4.82 µM in test [12].
`O=c1oc2ccc([N+](=O)[O-])cc2cc1Br`: the TGI in [1], in test [2], in test [3], in test [4], in [5] and in test [6] was greater than 100 µM each time. Also, the TGI in test [11], in test [7], in test [8], in test [9] and in test [12] was greater than 100 µM each time.
As for `Cc1nnc(Sc2nc(C#N)c(C#N)nc2Sc2nnc(C)s2)s1`, the TGI in [1] is 36.6 µM; in test [2], greater than 84.7 µM; in [10], 7.42 µM; in test [3] it was greater than 26.4 µM; in test [4] it was 9.18 µM; in [5] it was 6 µM. For the same molecule, the TGI in test [6] was determined as 99.4 µM; in test [7], 34.9 µM; in test [8], 62 µM; in test [9], 7.65 µM; in [12] it was 4.48 µM.
Consider `O=C(C/C=C/c1ccccc1)c1ccccc1`, for which the TGI in test [1] stood at 31 µM; in [2] it was 42.5 µM; in [10] it was 37 µM; in test [3], 49.9 µM; in [4], 30.3 µM; in test [5], 34 µM. Also, the TGI in test [6] is 58.6 µM; in test [11] it was 34.1 µM; in test [7] it was 26.4 µM; in [8], 72.1 µM; in test [9], greater than 100 µM.
With `Cc1ccc(N=C2C(c3ccccc3)=C(SC3=C(c4ccccc4)C(=Nc4ccc(C)cc4)c4ccccc43)c3ccccc32)cc1`, the TGI in test [1] was greater than 100 µM; in test [2], greater than 100 µM; in [10], greater than 100 µM; in [3], greater than 100 µM; in test [4], greater than 100 µM; in [5] it was 27.9 µM. The TGI in test [6] is 22.9 µM; in test [11] it was greater than 100 µM; in test [7] it was greater than 51.7 µM; in [8], greater than 100 µM; in test [9], 33.2 µM.
In the case of `Cc1cc2nc(N3C(=O)/C(=C/c4ccc(N(C)C)cc4)N=C3c3ccccc3)sc2cc1C`, the TGI in test [1] was greater than 100 µM; in test [2] it was 51 µM; in test [10], greater than 100 µM; in [3] it was 41.3 µM; in [4] it was greater than 100 µM; in test [5] it was 57.9 µM. Also, the TGI in test [6] was greater than 100 µM; in test [7], greater than 100 µM; in test [8], greater than 100 µM; in test [9], 53 µM.
